The target of one experiment is Lck (h) (Homo sapiens, UniProt P06239). Put plainly: Lck Human  Kinase Enzymatic Radiometric Assay. Type of experiment: biochemical. The settings on record: read-out: Lck IC50 nM Range*. The method, boiled down:
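Substrate 33P-incorporation measured by scintillation counting after spotting on P30 filtermat and phosphoric acid washes. Human Lck reacted 40 min at RT in 50 mM Tris pH 7.5 with 10 mM MgAcetate, [gamma-33P]-ATP, 250 uM Cdc2 peptide, 0.1 mM EGTA and 0.1 mM Na3VO4.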

Experiment [1] concerns the target T1, Recombinant (1-346) HPK1 (h) (Homo sapiens, UniProt Q92918).
T1 construct: Recombinant (1-346) HPK1 (h) is incubated with 8 mM MOPS pH 7.0
T1 sequence (Q92918 1-346): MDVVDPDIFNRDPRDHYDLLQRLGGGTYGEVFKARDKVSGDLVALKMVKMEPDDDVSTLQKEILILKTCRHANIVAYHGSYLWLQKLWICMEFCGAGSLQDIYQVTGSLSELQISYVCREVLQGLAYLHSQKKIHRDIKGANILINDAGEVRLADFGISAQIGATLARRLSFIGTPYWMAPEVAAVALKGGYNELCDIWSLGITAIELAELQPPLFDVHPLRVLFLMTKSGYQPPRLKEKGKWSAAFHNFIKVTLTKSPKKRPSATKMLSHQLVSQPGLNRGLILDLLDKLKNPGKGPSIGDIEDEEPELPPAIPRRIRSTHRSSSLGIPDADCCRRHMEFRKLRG
The experiment in a line: HPK1 Human STE Kinase Enzymatic Radiometric Assay. The class given is biochemical. The conditions noted are these: read-out: HPK1 IC50 nM Range*. As to the method:
A stock solution of 10 mM of test compound is prepared in DMSO. The compound plate was prepared by 3-fold and 9-point serial dilutions. […] The reaction is initiated by The addition of the Mg/ATP mix. After incubation for 40 minutes at RT, the reaction is stopped by the addition of phosphoric acid to a concentration of 0.5%.

Molecules are shown by their SMILES.

Chain of Lck (h) (P06239 whole entry): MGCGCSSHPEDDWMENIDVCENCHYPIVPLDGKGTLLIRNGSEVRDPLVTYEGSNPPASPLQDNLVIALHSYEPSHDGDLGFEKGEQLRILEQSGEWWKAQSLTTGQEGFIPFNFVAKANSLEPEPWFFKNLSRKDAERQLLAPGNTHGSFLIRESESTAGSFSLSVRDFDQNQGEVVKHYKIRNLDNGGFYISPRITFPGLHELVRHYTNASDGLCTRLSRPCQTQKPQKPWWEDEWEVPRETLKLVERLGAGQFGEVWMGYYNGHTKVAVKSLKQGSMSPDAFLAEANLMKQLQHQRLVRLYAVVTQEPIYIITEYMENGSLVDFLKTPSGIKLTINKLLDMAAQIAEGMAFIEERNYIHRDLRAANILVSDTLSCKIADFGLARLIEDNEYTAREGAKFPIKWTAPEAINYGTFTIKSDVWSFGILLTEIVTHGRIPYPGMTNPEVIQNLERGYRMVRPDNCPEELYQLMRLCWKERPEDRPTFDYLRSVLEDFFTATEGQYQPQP

In the case of `CC(C)N1CCC(C)(c2ccc(-c3cc(-c4ccc5c(c4)CCNC5=O)c(N)nc3F)cc2)C1` (centres unmarked) [I-164, 6-(2-amino-6-fluoro-5-(4-(1-isopropyl-3-methylpyrrolidin-3-yl)phenyl)pyridin-3-yl)-3,4-dihydroisoquinolin-1(2H)-one], the values for the IC50 (on Lck (h); in experiment [1]) were greater than 1000 nM and 0.1 to 10 nM, respectively.

In the case of `CC(C)(O)CN1C[C@H]2C[C@@]2(c2ccc(-c3cc(-c4ccc5c(c4)CCNC5=O)c(N)nc3F)cc2)C1` [I-125, 6-(2-amino-6-fluoro-5-(4-((1R,5S)-3-(2-hydroxy-2-methylpropyl)-3-azabicyclo[3.1.0]hexan-1-yl)phenyl)pyridin-3-yl)-3,4-dihydroisoquinolin-1(2H)-one], the IC50 on Lck (h) was greater than 1000 nM; in experiment [1], 0.1 to 10 nM.

As to `CN1CCc2cc(-c3cc(-c4ccc5c(c4)CCNC5=O)c(N)nc3F)ccc2C1` [I-254, 6-(2-amino-6-fluoro-5-(2-methyl-1,2,3,4-tetrahydroisoquinolin-6-yl)pyridin-3-yl)-3,4-dihydroisoquinolin-1(2H)-one], the results for the IC50 (on Lck (h); in experiment [1]) were greater than 1000 nM and 11 to 100 nM, respectively.

Turning to `C[C@H]1CC(Oc2ccc(-c3cc(-c4ccc5c(c4)CCNC5=O)c(N)nc3F)cc2)C[C@H](C)N1` (stereo partly drawn) [I-144, 6-(2-amino-5-(4-(((2S,6S)-2,6-dimethylpiperidin-4-yl)oxy)phenyl)-6-fluoropyridin-3-yl)-3,4-dihydroisoquinolin-1(2H)-one], the concentration for half-maximal inhibition (IC50) on Lck (h) lay in the range of 101 to 1000 nM; in experiment [1] it was 0.1 to 10 nM.

As for `COCCN1CCC(Oc2ccc(-c3cc(-c4ccc5c(c4)CCNC5=O)c(N)nc3F)cc2F)CC1` [I-269, 6-(2-amino-6-fluoro-5-(3-fluoro-4-((1-(2-methoxyethyl)piperidin-4-yl)oxy)phenyl)pyridin-3-yl)-3,4-dihydroisoquinolin-1(2H)-one], the half-inhibitory concentration (IC50) on Lck (h) was greater than 1000 nM; in experiment [1], 0.1 to 10 nM.

With `CN1C[C@H]2C[C@@]2(c2ccc(-c3cc(-c4cc5c(cc4F)C(=O)NCC5)c(N)nc3F)cc2)C1` [I-343, 6-(2-amino-6-fluoro-5-(4-((1R,5S)-3-methyl-3-azabicyclo[3.1.0]hexan-1-yl)phenyl)pyridin-3-yl)-7-fluoro-3,4-dihydroisoquinolin-1(2H)-one], the IC50 was greater than 1000 nM on Lck (h) and 0.1 to 10 nM in experiment [1].

In the case of `Nc1nc(F)c(-c2ccc([C@]34CNC[C@H]3C4)cc2)cc1-c1ccc2c(c1)CCNC2=O` [I-135, 6-(5-(4-((1R,5S)-3-azabicyclo[3.1.0]hexan-1-yl)phenyl)-2-amino-6-fluoropyridin-3-yl)-3,4-dihydroisoquinolin-1(2H)-one], the concentration for half-maximal inhibition (IC50) is greater than 1000 nM on Lck (h) and 0.1 to 10 nM in experiment [1].

Regarding `CN1C[C@@H]2C[C@]2(c2ccc(-c3cc(-c4cc(F)c5c(c4)CCNC5=O)c(N)nc3F)cc2)C1` [I-353, 6-(2-amino-6-fluoro-5-(4-((1S,5R)-3-methyl-3-azabicyclo[3.1.0]hexan-1-yl)phenyl)pyridin-3-yl)-8-fluoro-3,4-dihydroisoquinolin-1(2H)-one], the IC50 at Lck (h) was in the range of 101 to 1000 nM; in experiment [1], 0.1 to 10 nM.

For the compound `Cc1nc2cc(-c3cc(-c4ccc(N5CCN(C(C)C)CC5)cc4)c(F)nc3N)ccc2c(=O)[nH]1` [I-409, 7-(2-amino-6-fluoro-5-(4-(4-isopropylpiperazin-1-yl)phenyl)pyridin-3-yl)-2-methylquinazolin-4(3H)-one], the IC50 on Lck (h) was greater than 1000 nM; in experiment [1], 0.1 to 10 nM.

For the compound `CC(=O)N1CCC(Oc2ccc(-c3cc(-c4ccc5c(c4)CCNC5=O)c(N)nc3F)cc2F)CC1` [I-290, 6-(5-(4-((1-acetylpiperidin-4-yl)oxy)-3-fluorophenyl)-2-amino-6-fluoropyridin-3-yl)-3,4-dihydroisoquinolin-1(2H)-one], the IC50 (at Lck (h); in experiment [1]) was 0.1 to 10 nM in each case.

For the compound `CC(C)N1CCC(Oc2ccc(-c3cc(-c4ccc5c(c4)CCNC5=O)c(N)nc3F)c3c2OCO3)CC1` [I-275, 6-(2-amino-6-fluoro-5-(7-((1-isopropylpiperidin-4-yl)oxy)benzo[d][1,3]dioxol-4-yl)pyridin-3-yl)-3,4-dihydroisoquinolin-1(2H)-one], the concentration for half-maximal inhibition (IC50) on Lck (h) was greater than 1000 nM; in experiment [1], 0.1 to 10 nM.

Regarding `COCCN1CCN(c2ccc(-c3cc(-c4cc5c(cc4F)C(=O)NCC5)c(N)nc3F)cc2)CC1` [I-212, 6-(2-amino-6-fluoro-5-(4-(4-(2-methoxyethyl)piperazin-1-yl)phenyl)pyridin-3-yl)-7-fluoro-3,4-dihydroisoquinolin-1(2H)-one], the IC50 at Lck (h) was greater than 1000 nM; in experiment [1] it was 0.1 to 10 nM.

In the case of `CC(C)N1CC2C(F)(F)C2(c2ccc(-c3cc(-c4ccc5c(c4)CCNC5=O)c(N)nc3F)cc2)C1` (centres unmarked) [I-171, 6-(2-amino-5-(4-(6,6-difluoro-3-isopropyl-3-azabicyclo[3.1.0]hexan-1-yl)phenyl)-6-fluoropyridin-3-yl)-3,4-dihydroisoquinolin-1(2H)-one], the IC50 on Lck (h) is greater than 1000 nM; in experiment [1] it was 0.1 to 10 nM.

With `CC(C)N1CCN(c2ccc(-c3cc(-c4cc(F)c5c(=O)[nH]cnc5c4)c(N)nc3F)cc2)CC1` [I-405, 7-(2-amino-6-fluoro-5-(4-(4-isopropylpiperazin-1-y)phenyl)pyridin-3-yl)-5-fluoroquinazolin-4(3H)-one], the IC50 on Lck (h) is greater than 1000 nM; in experiment [1], 0.1 to 10 nM.

`CC(C)N1CCN(c2ccc(-c3cc(-c4cc5cc[nH]c(=O)c5cn4)c(N)nc3F)cc2)CC1` [I-401, 6-(2-amino-6-fluoro-5-(4-(4-isopropylpiperazin-1-yl)phenyl)pyridin-3-yl)-2,7-naphthyridin-1(2H)-one]: the half-maximal inhibitory concentration (IC50) on Lck (h) was greater than 1000 nM; in experiment [1], 0.1 to 10 nM.

For `Nc1nc(F)c(-c2ccc(S(=O)(=O)C(F)(F)F)cc2)cc1-c1ccc2c(c1)CCNC2=O` [I-87, 6-(2-amino-6-fluoro-5-(4-((trifluoromethyl)sulfonyl)phenyl)pyridin-3-yl)-3,4-dihydroisoquinolin-1(2H)-one], the results for the IC50 (at Lck (h); in experiment [1]) were greater than 1000 nM and 11 to 100 nM, respectively.

Regarding `CS(=O)(=O)[C@@H]1CCN(c2ccc(-c3cc(-c4ccc5c(c4)CCNC5=O)c(N)nc3F)cc2)C1` [I-116, (R)-6-(2-amino-6-fluoro-5-(4-(3-(methylsulfonyl)pyrrolidin-1-yl)phenyl)pyridin-3-yl)-3,4-dihydroisoquinolin-1(2H)-one], the half-maximal inhibitory concentration (IC50) was greater than 1000 nM at Lck (h) and 0.1 to 10 nM in experiment [1].

With `CCN1CCOC(c2ccc(-c3cc(-c4ccc5c(c4)CCNC5=O)c(N)nc3F)cc2)C1` (centres unmarked) [I-102, 6-(2-amino-5-(4-(4-ethylmorpholin-2-yl)phenyl)-6-fluoropyridin-3-yl)-3,4-dihydroisoquinolin-1(2H)-one], the figures for the half-inhibitory concentration (IC50) (at Lck (h); in experiment [1]) were greater than 1000 nM and 11 to 100 nM, respectively.

For `Nc1nc(F)c(-c2ccc(C3=CCN(CC(F)F)C3)cc2)cc1-c1ccc2c(c1)CCNC2=O` [I-127, 6-(2-amino-5-(4-(1-(2,2-difluoroethyl)-2,5-dihydro-1H-pyrrol-3-yl)phenyl)-6-fluoropyridin-3-yl)-3,4-dihydroisoquinolin-1(2H)-one], the values for the concentration for half-maximal inhibition (IC50) (at Lck (h); in experiment [1]) were greater than 1000 nM and 0.1 to 10 nM, respectively.

With `Nc1nc(F)c(-c2ccc(OC3CCN(CC(F)(F)F)CC3)cc2)cc1-c1ccc2c(c1)CCNC2=O` [I-186, 6-(2-amino-6-fluoro-5-(4-((1-(2,2,2-trifluoroethyl)piperidin-4-yl)oxy)phenyl)pyridin-3-yl)-3,4-dihydroisoquinolin-1(2H)-one], the 50% inhibitory concentration (IC50) at Lck (h) was greater than 1000 nM; in experiment [1] it was 11 to 100 nM.

For the compound `COCCN1CCC(c2ccc(-c3cc(-c4ccc5c(c4)CCNC5=O)c(N)nc3F)cc2)CC1` [I-107, 6-(2-amino-6-fluoro-5-(4-(1-(2-methoxyethyl)piperidin-4-yl)phenyl)pyridin-3-yl)-3,4-dihydroisoquinolin-1(2H)-one], the IC50 at Lck (h) is greater than 1000 nM; in experiment [1], 0.1 to 10 nM.

For `CS(=N)(=O)c1ccc(-c2cc(-c3ccc4c(c3)CCNC4=O)c(N)nc2F)cc1` (centres unmarked) [I-86, 6-(2-amino-6-fluoro-5-(4-(S-methylsulfonimidoyl)phenyl)pyridin-3-yl)-3,4-dihydroisoquinolin-1(2H)-one], the results for the half-maximal inhibitory concentration (IC50) (on Lck (h); in experiment [1]) were greater than 1000 nM and 0.1 to 10 nM, respectively.

For the compound `CN1C[C@H]2C[C@@]2(c2ccc(-c3cc(-c4ccc5c(c4)C(C)(C)NC5=O)c(N)nc3F)cc2)C1` [I-36, 5-(2-amino-6-fluoro-5-(4-((1R,5S)-3-methyl-3-azabicyclo[3.1.0]hexan-1-yl)phenyl)pyridin-3-yl)-3,3-dimethylisoindolin-1-one], the results for the IC50 (on Lck (h); in experiment [1]) were greater than 1000 nM and 0.1 to 10 nM, respectively.

In the case of `COc1cc(-c2cc(-c3ccc4c(c3)CCNC4=O)c(N)nc2F)ccc1OC1CCN(C(C)C)CC1` [I-273, 6-(2-amino-6-fluoro-5-(4-((1-isopropylpiperidin-4-yl)oxy)-3-methoxyphenyl)pyridin-3-yl)-3,4-dihydroisoquinolin-1(2H)-one], the IC50 at Lck (h) is greater than 1000 nM; in experiment [1], 0.1 to 10 nM.

Take `CC(C)N1CCOC(c2ccc(-c3cc(-c4ccc5c(c4)CCNC5=O)c(N)nc3F)cc2)C1` (centres unmarked) [I-105, 6-(2-amino-6-fluoro-5-(4-(4-isopropylmorpholin-2-yl)phenyl)pyridin-3-yl)-3,4-dihydroisoquinolin-1(2H)-one]: the IC50 is greater than 1000 nM on Lck (h) and 0.1 to 10 nM in experiment [1].

For the origin of these results see patent publication US20240343704A1, “HALO-SUBSTITUTED AMINO PYRIDINE COMPOUNDS AS INHIBITORS OF THE HAEMATOPOIETIC PROGENITOR KINASE 1 (HPK1)” (priority 2021, published 2024).
